Assay results reported in the supplement of paper PMC10307832.

How the values were obtained:
Experiment in all cases: relative viability (nuclei count vs DMSO), 5 days (fraction); higher = more cells survive
[1] = compound: CCn1c(-c2nonc2N)nc2cnc(Oc3cccc(NC(=O)c4ccc(OCCN5CCOCC5)cc4)c3)cc21 + COc1cc2c(Oc3ccc(NC(=O)C4(C(=O)Nc5ccc(F)cc5)CC4)cc3F)ccnc2cc1OCCCN1CCOCC1 [Foretinib] (partner 0.25 µM)
Outline: (§1)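 Cells from lung cancer lines were seeded into 1536-well plates and, one day later, dosed by pin tool. Treatments were either a single drug or a fixed dose of an anchor drug with five library-drug doses (not always all listed) in √10 steps. After 5 days, nuclei were stained in a one-step fixation (final 0.05% Triton X-100, 1% formaldehyde, 1 ug/ml Hoechst) and counted on 4× images, and relative viability is the treated-to-vehicle nuclei ratio, as the median of duplicate plates.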

[2] = compound: N=C1NC(=O)/C(=C/c2ccc(O)cc2)S1 [Mirin] + COc1cccc2cc(-c3nc([C@H]4CC[C@H](C(=O)O)CC4)n4ncnc(N)c34)[nH]c12 [OSI-027] (partner 0.5 µM)
Outline: as §1

[3] = compound: CCC1=CN=CN=C1N2CCN(CC2)CC3=NC4=C(N3)C=C(C=C4)C(F)(F)F + Nc1nc2[nH]cc(CCc3ccc(C(=O)N[C@@H](CCC(=O)O)C(=O)O)cc3)c2c(=O)[nH]1 [Pemetrexed] (partner 0.2 µM)
Outline: as §1

[4] = compound: CCC1=CN=CN=C1N2CCN(CC2)CC3=NC4=C(N3)C=C(C=C4)C(F)(F)F + CCNC(=O)c1noc(-c2cc(C(C)C)c(O)cc2O)c1-c1ccc(CN2CCOCC2)cc1 [Luminespib] (partner 0.01 µM)
Outline: as §1

Cell Line | relative viability ([1]; first compound 0.04 µM) | relative viability ([1]; first compound 0.1265 µM) | relative viability ([1]; first compound 0.4 µM) | relative viability ([1]; first compound 1.265 µM) | relative viability ([1]; first compound 4 µM) | relative viability ([2]; first compound 0.25 µM) | relative viability ([2]; first compound 0.7906 µM) | relative viability ([2]; first compound 2.5 µM) | relative viability ([2]; first compound 7.906 µM) | relative viability ([2]; first compound 25 µM) | relative viability ([3]; first compound 0.04 µM) | relative viability ([3]; first compound 0.1265 µM) | relative viability ([3]; first compound 0.4 µM) | relative viability ([3]; first compound 1.265 µM) | relative viability ([3]; first compound 4 µM) | relative viability ([4]; first compound 0.04 µM) | relative viability ([4]; first compound 0.1265 µM) | relative viability ([4]; first compound 0.4 µM) | relative viability ([4]; first compound 1.265 µM) | relative viability ([4]; first compound 4 µM)
NCI-H2170 | 1 | 0.99 | 0.997 | 0.939 | 0.848 | 0.716 | 0.642 | 0.784 | 0.653 | 0.787 | 0.265 | 0.266 | 0.291 | 0.256 | 0.263 | 0.577 | 0.6 | 0.712 | 0.748 | 0.823
HCC-366 | 0.946 | 1 | 0.907 | 0.937 | 0.968 | 0.974 | – | 0.919 | 0.711 | 0.882 | 0.174 | 0.22 | 0.156 | 0.137 | 0.15 | – | – | – | – | –
NCI-H2405 | 1.23 | 0.999 | 0.485 | 0.342 | 0.384 | 0.625 | 0.612 | 0.585 | 0.627 | 0.508 | 1.02 | 1.05 | 0.992 | – | 1.15 | 0.684 | 0.704 | 0.657 | – | 0.794
COR-L 105 | 1.25 | 1 | 0.874 | 0.575 | 0.308 | 0.7 | 0.684 | 0.829 | 0.975 | 0.434 | 1.07 | 1.12 | 1.28 | 1.01 | 1.03 | 0.8 | 1.08 | 0.77 | 0.724 | 0.732
201T | 1.28 | 1.11 | 1.05 | 0.555 | 0.598 | 0.75 | 0.832 | – | 0.629 | 0.64 | 0.274 | 0.312 | 0.297 | 0.322 | 0.375 | 1.08 | 1.04 | 0.974 | 0.938 | 0.96
NCI-H2228 | 1.28 | 0.946 | 1.03 | 0.744 | 0.731 | 0.57 | 0.44 | 0.515 | 0.575 | 0.538 | – | 0.363 | 0.335 | 0.303 | 0.294 | 0.131 | 0.132 | 0.131 | 0.144 | 0.175
LC-2-ad | 1 | 0.927 | 0.784 | 0.529 | 0.687 | 0.851 | 0.776 | 0.822 | 0.567 | 0.492 | 0.272 | 0.266 | 0.283 | 0.289 | 0.292 | 0.952 | 1.01 | 1.01 | 0.873 | 0.939
NCI-H2085 | 1.2 | 1.15 | 0.93 | 0.858 | 0.806 | 0.873 | 0.674 | 0.748 | 0.603 | 0.584 | 0.818 | 0.789 | 0.84 | 0.772 | 0.845 | 0.442 | 0.481 | 0.421 | 0.387 | 0.356
NCI-H358 | 0.886 | 0.653 | 0.775 | 0.396 | 0.44 | 0.783 | 0.843 | 0.793 | 0.542 | 0.368 | 0.159 | 0.193 | 0.176 | 0.151 | 0.167 | 0.288 | 0.263 | 0.339 | – | 0.194
H3255 | 1.22 | 0.834 | 0.679 | 0.668 | 0.642 | 0.558 | 0.536 | 0.636 | 0.475 | 0.616 | 0.59 | 0.552 | 0.59 | 0.568 | 0.575 | 0.785 | 0.853 | 0.72 | 0.619 | 0.859
NCI-H23 | 1.05 | 0.909 | 0.978 | 0.853 | 0.862 | 0.725 | – | 0.544 | 0.443 | 0.589 | 0.579 | 0.755 | 0.615 | 0.646 | 0.558 | 0.223 | 0.219 | 0.21 | 0.191 | 0.213
CAL-12T | 1.42 | 1.3 | 1.28 | 0.793 | 0.51 | 0.797 | – | 0.681 | 0.695 | 0.525 | 1.3 | 1.18 | 1.19 | 1.24 | 1.18 | 0.803 | 0.454 | 0.485 | 0.273 | 0.29
A-427 | 1.12 | 0.947 | 1.14 | 1.02 | 1.21 | 0.484 | – | 0.525 | 0.272 | 0.411 | 0.761 | 0.934 | 0.873 | 0.835 | 0.898 | 0.874 | 0.881 | 0.908 | 0.75 | 0.722
HARA | 1.13 | 1.09 | 0.906 | 0.939 | 0.883 | 0.491 | – | 0.56 | 0.356 | 0.437 | 0.276 | 0.242 | 0.227 | 0.226 | 0.222 | 0.668 | 0.561 | 0.682 | – | 0.555
NCI-H1793 | 0.712 | 0.572 | 0.734 | 0.76 | 0.725 | 0.289 | – | 0.335 | 0.286 | 0.259 | 0.862 | 0.786 | 0.613 | 0.52 | 0.82 | 0.152 | 0.311 | 0.171 | – | 0.165
NCI-H1623 | 1.08 | 0.975 | 0.779 | 0.727 | 0.897 | 0.444 | 0.442 | 0.421 | 0.336 | 0.376 | – | – | – | – | – | 0.44 | 0.513 | 0.383 | 0.476 | 0.651
NCI-H2009 | 1.07 | 0.974 | 0.921 | 0.642 | 0.356 | 0.646 | 0.662 | 0.706 | 0.413 | 0.522 | 0.98 | 1.02 | 0.951 | 0.992 | 1.08 | 1.1 | 0.966 | 1.02 | 1.06 | 0.87
